Data published in paper PMC2248166, “Quantitative peptide binding motifs for 19 human and mouse MHC class I molecules derived using positional scanning combinatorial peptide libraries” (Immunome Research, 2008).

What was measured:
HLA B*0702 = HLA B*0702 (Homo sapiens, UniProt P01889); assay type: binding; conditions: positional scanning combinatorial 9-mer library; normalized to 1.0 for the best residue at each position
HLA B*3501 = HLA B*3501 (Homo sapiens, UniProt P01889, A329T/A93T/A95T/C349S/D201E/D98Y/E176V/E187L/E204Q/E69T/I218V/K202T/L119I/Q94N/R155S/R180L/S121R/S35A/S48A/T118I/V127L/V306I/V36M/Y140S/Y91F); assay type: binding
H-2 K^k = H-2 K^k (Mus musculus, UniProt P04223); assay type: binding
HLA A*0201 = HLA A*0201 (Homo sapiens, UniProt P04439, D140Y/D185E/D98H/E176V/E277Q/G131W/G231S/I119V/I121R/I166T/I218V/L300P/L318F/N151K/N90K/P208A/P217A/Q86G/Q94H/R138H/R169H/T345S); conditions: positional scanning combinatorial 9-mer library; normalized to 1.0 for the best residue at each position
H-2 D^d = H-2 D^d (Mus musculus, UniProt P01900); assay type: binding
HLA A*3201 = HLA A*3201 (Homo sapiens, UniProt P04439, A270S/D101S/D185E/E176V/E277Q/F133L/G103R/G107R/G231S/H175R/I121M/I218V/I322F/K168Q/L105A/L300P/L318F/M331R/P208A/P217A/Q94H/R106L/R138Q/S129P/T104I/T323A/T345S/V100E/V321M/V358M); experiment: biochemical; assay type: binding
HLA B*1501 = HLA B*1501 (Homo sapiens, UniProt P01889, A329T/A93T/A95T/C349S/D201E/D98Y/E187L/E204Q/E69M/E70A/K202T/N87E/Q94N/R155S/R180W/S121R/S35A/S48A/V306I/V36M/Y140S/Y91S); experiment: biochemical; assay type: binding
HLA B*5401 = HLA B*5401 (Homo sapiens, UniProt P01889, A329T/C349S/D138N/D201E/E176V/E187T/E204Q/E69G/I76V/K202T/L119W/R155S/R180L/S121T/S35A/S48A/V127L/V306I/V36M/Y140L); assay type: binding
HLA B*5801 = HLA B*5801 (Homo sapiens, UniProt P01889, A329T/C349S/D201E/D98Y/E176V/E187L/E204Q/E69T/G107R/I218V/I90N/K202T/L105A/L119I/N104I/N87E/Q89R/Q94S/R106L/R155S/R180L/R86G/S101N/S121R/S35A/S48A/T118I/V127L/V306I/V36M/Y140S/Y91M); assay type: binding
H-2 D^b = H-2 D^b (Mus musculus, UniProt P01899); assay type: binding
HLA B*0801 = HLA B*0801 (Homo sapiens, UniProt P01889, A93T/A95T/D138N/E176V/E187T/K202T/Q94N/R180D/S35A/V36M/Y33D/Y91F); experiment: biochemical; assay type: binding
HLA B*5301 = HLA B*5301 (Homo sapiens, UniProt P01889, A329T/A93T/A95T/C349S/D201E/D98Y/E176V/E187L/E204Q/E69T/G107R/I218V/K202T/L105A/L119I/N104I/Q94N/R106L/R155S/R180L/S101N/S121R/S35A/S48A/T118I/V127L/V306I/V36M/Y140S/Y91F); assay type: binding
HLA B*2705 = HLA B*2705 (Homo sapiens, UniProt P01889, D138H/D201E/E176V/E204Q/G107R/H137Y/K202T/N104T/N87E/Q56L/Q94K/R106L/R155S/R180L/S101D/S121N/S48T/Y140D/Y33H/Y91C); assay type: binding; conditions: positional scanning combinatorial 9-mer library; normalized to 1.0 for the best residue at each position
HLA A*3001 = HLA A*3001 (Homo sapiens, UniProt P04439, D140H/D185E/E176W/F33S/G80R/H175R/K168Q/R138E/R41S); experiment: biochemical; assay type: binding
HLA B*5802 = HLA B*5802 (Homo sapiens, UniProt P01889, A329T/C349S/D201E/D98Y/E176V/E187L/E204Q/E69T/G107R/I218V/I90N/K202T/L105A/N104I/N87E/Q89R/Q94S/R106L/R155S/R180L/R86G/S101N/S121W/S35A/S48A/V127L/V306I/V36M/Y140S/Y91M); assay type: binding
HLA B*1503 = HLA B*1503 (Homo sapiens, UniProt P01889, A329T/A93T/A95T/C349S/D201E/D98Y/E187L/E204Q/K202T/N87E/Q94N/R155S/R180L/S121R/S35A/V306I/V36M/Y140S/Y91S); experiment: biochemical; assay type: binding
HLA A*6802 = HLA A*6802 (Homo sapiens, UniProt P04439, A269V/D140Y/D185E/E176V/E277Q/E87N/F33Y/G231S/I121R/I166T/I218V/L180W/L300P/L318F/N151K/P208A/P217A/Q86R/R138H/R169H/S129P/T345S/V36M); assay type: binding
HLA B*5101 = HLA B*5101 (Homo sapiens, UniProt P01889, A329T/A93T/A95T/C349S/D138N/D201E/D98Y/E187L/E204Q/E69T/G107R/I218V/K202T/L105A/L119W/N104I/Q94N/R106L/R155S/R180L/S101N/S121T/S35A/S48A/V306I/V36M/Y195H/Y91F); assay type: binding

Sequence of H-2 D^d (P01900 whole entry, looked up): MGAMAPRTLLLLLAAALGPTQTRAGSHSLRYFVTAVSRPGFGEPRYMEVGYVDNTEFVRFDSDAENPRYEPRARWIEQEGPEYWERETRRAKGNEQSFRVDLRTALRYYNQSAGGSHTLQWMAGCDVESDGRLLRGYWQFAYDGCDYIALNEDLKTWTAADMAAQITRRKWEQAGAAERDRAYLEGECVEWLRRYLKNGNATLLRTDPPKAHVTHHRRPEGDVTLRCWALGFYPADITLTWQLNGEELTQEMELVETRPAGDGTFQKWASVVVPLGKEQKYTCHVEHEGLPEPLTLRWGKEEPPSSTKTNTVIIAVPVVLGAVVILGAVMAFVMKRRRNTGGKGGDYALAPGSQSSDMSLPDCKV
Sequence of H-2 K^k (P01887 21-119): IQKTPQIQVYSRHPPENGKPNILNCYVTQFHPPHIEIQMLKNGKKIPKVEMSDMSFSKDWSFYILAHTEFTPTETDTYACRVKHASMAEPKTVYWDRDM
Sequence of H-2 K^k (P04223 22-369): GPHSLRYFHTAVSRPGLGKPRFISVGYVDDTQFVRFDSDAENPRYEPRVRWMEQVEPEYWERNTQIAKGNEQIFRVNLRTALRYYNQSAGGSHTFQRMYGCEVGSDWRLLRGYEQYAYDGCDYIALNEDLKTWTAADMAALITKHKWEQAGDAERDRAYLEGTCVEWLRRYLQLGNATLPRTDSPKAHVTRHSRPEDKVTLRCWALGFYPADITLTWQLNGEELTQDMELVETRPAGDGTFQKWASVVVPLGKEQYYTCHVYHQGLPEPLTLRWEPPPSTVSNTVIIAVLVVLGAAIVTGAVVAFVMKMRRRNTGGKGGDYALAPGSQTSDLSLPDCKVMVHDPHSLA
Sequence of H-2 D^b (P01887 21-119): as the sequence (P01887 21-119) above
Sequence of H-2 D^b (P01899 25-362): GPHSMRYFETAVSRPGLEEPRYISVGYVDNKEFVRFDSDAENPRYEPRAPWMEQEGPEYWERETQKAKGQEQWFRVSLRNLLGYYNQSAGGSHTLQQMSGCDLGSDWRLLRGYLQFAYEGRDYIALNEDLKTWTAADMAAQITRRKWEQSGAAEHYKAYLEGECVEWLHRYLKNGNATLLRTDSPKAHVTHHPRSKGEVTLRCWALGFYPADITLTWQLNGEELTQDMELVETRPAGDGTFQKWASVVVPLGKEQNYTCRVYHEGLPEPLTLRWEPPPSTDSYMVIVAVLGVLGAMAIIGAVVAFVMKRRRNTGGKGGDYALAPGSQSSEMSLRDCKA

Sequence	Normalized average relative binding affinity (ARB), HLA B*0702 (HLA B*0702)	Normalized average relative binding affinity (ARB), HLA B*3501 (HLA B*3501)	Normalized average relative binding affinity (ARB), H-2 Kk (H-2 K^k)	Normalized average relative binding affinity (ARB), HLA A*0201 (HLA A*0201)	Normalized average relative binding affinity (ARB), H-2 Dd (H-2 D^d)	Normalized average relative binding affinity (ARB), HLA A*3201 (HLA A*3201)	Normalized average relative binding affinity (ARB), HLA B*1501 (HLA B*1501)	Normalized average relative binding affinity (ARB), HLA B*5401 (HLA B*5401)	Normalized average relative binding affinity (ARB), HLA B*5801 (HLA B*5801)	Normalized average relative binding affinity (ARB), H-2 Db (H-2 D^b)	Normalized average relative binding affinity (ARB), HLA B*0801 (HLA B*0801)	Normalized average relative binding affinity (ARB), HLA B*5301 (HLA B*5301)	Normalized average relative binding affinity (ARB), HLA B*2705 (HLA B*2705)	Normalized average relative binding affinity (ARB), HLA A*3001 (HLA A*3001)	Normalized average relative binding affinity (ARB), HLA B*5802 (HLA B*5802)	Normalized average relative binding affinity (ARB), HLA B*1503 (HLA B*1503)	Normalized average relative binding affinity (ARB), HLA A*6802 (HLA A*6802)	Normalized average relative binding affinity (ARB), HLA B*5101 (HLA B*5101)
KXXXXXXXX [3064.0009]	0.37	0.050	0.082	0.11	0.18	1.0	0.39	0.037	1.0	0.14	0.039	0.0057	0.26	0.49	1.0	0.46	0.013	0.052
AXXXXXXXX [3064.0001]	0.78	0.042	0.18	0.11	0.20	0.36	0.31	0.014	0.33	0.14	0.11	0.0057	0.35	0.18	0.065	0.47	0.031	0.071
XXKXXXXXX [3064.0049]	0.20	0.096	0.39	0.016	0.0033	0.092	0.53	0.015	0.020	0.028	0.96	0.019	0.21	0.20	0.081	0.095	0.11	0.20
